Experiments:
A375 (melanoma) cells = assay: Proliferation Assay (CellTiter-Glo); type: cell-based; conditions: 3 days incubation, CellTiter-Glo luminescence
Procedure: A375 (melanoma), Colo-205 (colon cancer), Miapaca (pancreatic), HPAFII (pancreatic), sNF02.0 (neurofibromatosis type 1), sNF96.2 (neurofibromatosis type 1) and 8505 (Thyroid) cells were grown and maintained in RPMI-1640 medium containing 100 U/mL penicillin-streptomycin and 10% fetal bovine serum. Cells were in growth medium in 96-well opaque-walled clear bottom plates and incubated in the CO2 incubator overnight before treatment. Cells were treated with compounds diluted in DMSO and a 10 point 3-fold serial dilutions were done. Plates were placed in 37° C., 5% CO2 to incubate for 3 days. Before they were developed by adding 100 μL of CellTiter-Glo reagent (Promega) to the assay plate, plates were shaken briefly for 2 mins and allowed to incubate at room temperature for 10 mins. The bottom of the plates was pasted with white back seal and luminescence was recorded with Flexstation3 with setting of luminescence, integration time 500 ms.
Compounds of Formula (I), (II) and (III) are active in this assay as noted in Table 2.

ERK2 = ERK2 (Homo sapiens (Human), UniProt P28482); assay: Active ERK1 and ERK2 Kinase Assay (Mobility Shift Assay); type: biochemical; conditions: activated ERK2, Mobility Shift Assay
ERK2, sequence (P28482 whole entry): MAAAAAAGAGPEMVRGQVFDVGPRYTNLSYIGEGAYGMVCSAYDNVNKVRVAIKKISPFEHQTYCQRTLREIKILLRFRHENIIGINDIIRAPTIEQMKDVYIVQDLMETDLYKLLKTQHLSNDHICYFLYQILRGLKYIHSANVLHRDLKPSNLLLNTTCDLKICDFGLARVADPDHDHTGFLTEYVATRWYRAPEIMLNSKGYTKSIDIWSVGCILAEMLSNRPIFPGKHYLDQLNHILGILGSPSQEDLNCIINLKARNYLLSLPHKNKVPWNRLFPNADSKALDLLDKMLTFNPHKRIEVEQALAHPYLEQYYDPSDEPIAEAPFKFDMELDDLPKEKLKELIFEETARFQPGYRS
Procedure: Activated ERK1 and ERK2 activity was determined in a Mobility Shift Assay (MSA) format as follows: Compound and kinase solution were prepared with assay buffer (20 mM HEPES, 0.01% Triton X-100, 2 mM DTT, pH7.5) and mixed and incubated in for 30 mins at rt. ERK1 & ERK2 were then activated by the addition of F1-Substrate, ATP and metal solution and incubated for 1 h at rt. After 1 h, the reaction was terminated by the addition of […] of Termination Buffer (QuickScout Screening Assist MSA; Carna Biosciences) to the well. The reaction mixture was applied to LabChip™ system (PerkinElmer), and the product and substrate peptide peaks were separated, analyzed and quantitated. The kinase reaction is evaluated by the product ratio calculated from peak heights of product (P) and substrate(S) peptides (P/(P+S)).

Compound | IC50 (A375 (melanoma) cells; Homo sapiens, A-375, 72 h) [nM] | IC50 (ERK2) [nM] | IC50 (A375 (melanoma) cells) [nM]
CN1CCC(c2n[nH]c3ccc(N4CC[C@]5(CCN(CC(=O)N6CC=C(c7ccc(-c8ncn(C)n8)cc7)CC6)C5)C4=O)cc23)CC1 [Example 4, (S)-7-(2-(4-(4-(1-methyl-1H-1,2,4-triazol-3-yl)phenyl)-3,6-dihydropyridin-1(2H)-yl)-2-oxoethyl)-2-(3-(1-methylpiperidin-4-yl)-1H-indazol-5-yl)-2,7-diazaspiro[4.4]nonan-1-one] | ≥ 1000 | ≥ 250 | –
Cn1cnc(-c2ccc(C3=CCN(C(=O)CN4CC[C@]5(CCN(c6ccc7[nH]nc(C8CCOC8)c7c6)C5=O)C4)CC3)cc2)n1 (stereo partly drawn) [Example 13, (5S)-7-(2-(4-(4-(1-Methyl-1H-1,2,4-triazol-3-yl)phenyl)-5,6-dihydropyridin-1(2H)-yl)-2-oxoethyl)-2-(3-(tetrahydrofuran-3-yl)-1H-indazol-5-yl)-2,7-diazaspiro[4.4]nonan-1-one] | ≤ 500 | ≤ 50 | –
CC(C)Oc1ccc(-c2n[nH]c3ccc(N4CC[C@]5(CCN(CC(=O)N6CC=C(c7ccc(-c8ncn(C)n8)s7)CC6)C5)C4=O)nc23)cn1 [Example 65] | – | ≤ 50 | ≤ 500
Cn1cnc(-c2ccc(C3=CCN(C(=O)CN4CC[C@]5(CCN(c6ccc7[nH]nc(C8=CCOCC8)c7n6)C5=O)C4)CC3)cc2)n1 [Example 26] | ≤ 500 | ≤ 50 | –
Cc1ncc(-c2n[nH]c3ccc(N4CC[C@]5(CCN(CC(=O)N6CC=C(c7ccc(-c8nn(C)c(=O)o8)cc7)CC6)C5)C4=O)cc23)s1 [Example 33] | ≤ 500 | ≤ 50 | –
CC(C)n1cc(-c2n[nH]c3ccc(N4CC[C@]5(CCN(CC(=O)N6CC=C(c7ccc(-c8nn(C)c(=O)o8)cc7)CC6)C5)C4=O)cc23)cn1 [Example 31] | ≤ 500 | ≤ 50 | –
CC(C)Sc1ccc(-c2n[nH]c3ccc(N4CC[C@]5(CCN(CC(=O)N6CC=C(c7ccc(-c8ncn(C)n8)cc7)CC6)C5)C4=O)nc23)cn1 [Example 76] | – | ≤ 50 | ≤ 500
Cn1cnc(-c2cnc(C3=CCN(C(=O)CN4CC[C@]5(CCN(c6ccc7[nH]nc(-c8ccc(OC9CCC9)nc8)c7n6)C5=O)C4)CC3)s2)n1 [Example 90] | – | – | ≤ 500
CC(C)Oc1cnc(-c2n[nH]c3ccc(N4CC[C@]5(CCN(CC(=O)N6CC=C(c7ccc(-c8ncn(C)n8)cc7)CC6)C5)C4=O)cc23)c(F)c1 [Example 78] | – | – | ≥ 1000
CC(C)Oc1ccc(-c2n[nH]c3ccc(N4CCC5(CCN(CC(=O)N6CC=C(c7ccc(-c8ncn(C)n8)cc7)CC6)C5)C4=O)nc23)cn1 (centres unmarked) [Example 83] | – | – | ≤ 500
CC(C)Oc1ccc(-c2n[nH]c3ccc(N4CCC5(CCN(C(C)C(=O)N6CC=C(c7ncc(-c8ncn(C)n8)s7)CC6)C5)C4=O)nc23)cn1 (mixture of isomers) [Example 95] | – | – | ≥ 1000
CC(C(=O)N1CC=C(c2ncc(-c3ncn(C)n3)s2)CC1)N1CCC2(CCN(c3ccc4[nH]nc(-c5ccc(F)cc5)c4n3)C2=O)C1 (mixture of isomers) [Example 96] | – | – | ≥ 1000
CC(C)Oc1ccc(-c2n[nH]c3ccc(N4CC[C@]5(CCN(CC(=O)N6CC=C(c7ncc(-c8ncn(C)n8)s7)CC6)C5)C4=O)nc23)cc1 [Example 94] | – | – | ≤ 500
CC(C)Nc1cc(-c2c[nH]c(C(=O)N[C@H](CO)c3cccc(Cl)c3)c2)c(Cl)cn1 [BVD-523, reference compound] | ≤ 500 | – | –
CC(C)Oc1ccc(-c2n[nH]c3ccc(N4CC[C@]5(CCN(CC(=O)N6CCC(c7ncc(-c8ncn(C)n8)s7)CC6)C5)C4=O)nc23)cn1 [Example 86] | – | – | ≤ 500
CC(C)Oc1ccc(-c2n[nH]c3ccc(N4CC[C@]5(CCN(CC(=O)N6CCN(c7ncc(-c8ncn(C)n8)s7)CC6)C5)C4=O)nc23)cn1 [Example 87] | – | – | ≤ 500
CCn1cnc(-c2cnc(C3=CCN(C(=O)CN4CC[C@]5(CCN(c6ccc7[nH]nc(-c8ccc(OC(C)C)nc8)c7n6)C5=O)C4)CC3)s2)n1 [Example 88] | – | – | ≤ 500
COc1ccc(F)c(-c2n[nH]c3ccc(N4CC[C@]5(CCN(CC(=O)N6CCC(c7ccc(-c8ncn(C)n8)cc7)CC6)C5)C4=O)cc23)n1 [Example 75] | – | – | ≤ 500
CC(C)Oc1ccc(-c2n[nH]c3ccc(N4CCC5(CCN(CC(=O)N6CCN(c7ccc(-c8ncn(C)n8)cc7)CC6C)C5)C4=O)nc23)cn1 (mixture of isomers) [Example 85] | – | – | ≤ 500
Cc1ncc(-c2n[nH]c3ccc(N4CC[C@]5(CCN(CC(=O)N6CC=C(c7ccc(-c8ncn(C)n8)cc7)CC6)C5)C4=O)nc23)s1 [Example 30] | ≤ 500 | – | –

The remaining lines, values ahead:

IC50 (A375 (melanoma) cells; Homo sapiens, A-375, 72 h) [nM] | IC50 (ERK2) [nM] | IC50 (A375 (melanoma) cells) [nM] | Compound
– | – | ≥ 1000 | CC(C)Oc1ccc(-c2n[nH]c3ccc(N4CC[C@]5(CCN(CC(=O)N6CC=C(c7ccc(-c8cn(C)cn8)cc7)CC6)C5)C4=O)nc23)cn1 [Example 98]
500 to 1000 | – | – | Cn1nccc1Nc1nccc(-c2ccn([C@H](CO)c3ccc(Cl)c(F)c3)c(=O)c2)n1 [GDC-0994, reference compound]
– | – | ≤ 500 | CC(C)Oc1ccc(-c2n[nH]c3ccc(N4CC[C@]5(CCN(CC(=O)N6CC=C(c7ccc(-c8ncn(C)n8)cc7)CC6)C5)C4=O)nc23)cc1F [Example 116]
≥ 1000 | – | – | CC(C)Oc1ccc(-c2n[nH]c3ccc(N4CC[C@]5(CCN(CC(=O)N6CCN(c7ccc(-c8ncn(C)n8)cc7)C[C@H]6C)C5)C4=O)nc23)cn1 [Example 114]
≤ 500 | – | – | O=C(Nc1ccc2[nH]nc(-c3ccncc3)c2c1)[C@@H]1CCN(CC(=O)N2CCN(c3ccc(-c4ncccn4)cc3)CC2)C1 [SCH772984, reference compound]
– | – | 500 to 1000 | Cn1cnc(-c2ccc(C3=CCN(C(=O)CN4CC[C@]5(CCN(c6ccc7[nH]nc(-c8ccc(F)c(N9CCCC9)n8)c7c6)C5=O)C4)CC3)cc2)n1 [Example 119]
– | – | ≤ 500 | Cc1n[nH]c2ccc(-c3n[nH]c4ccc(N5CC[C@]6(CCN(CC(=O)N7CC=C(c8ccc(-c9ncn(C)n9)cc8)CC7)C6)C5=O)nc34)cc12 [Example 100]
≤ 500 | – | – | COc1cc(-c2n[nH]c3ccc(N4CC[C@]5(CCN(CC(=O)N6CC=C(c7ccc(-c8ncn(C)n8)cc7)CC6)C5)C4=O)nc23)ccc1OC(C)C [Example 107]
≤ 500 | – | – | CC(C)Oc1ccc(-c2n[nH]c3ccc(N4CC[C@]5(CCN(CC(=O)N6CC=C(c7ccc(-c8ncn(C)n8)cc7)CC6)C5)C4=O)cc23)cc1 [Example 109]
≤ 500 | – | – | CC(C)Oc1ccc(-c2n[nH]c3ccc(N4CC[C@]5(CCN(CC(=O)N6CC=C(c7ccc(-c8ncn(C)n8)cn7)CC6)C5)C4=O)nc23)cc1 [Example 104]
– | – | ≤ 500 | CC(C)Oc1ccc(-c2n[nH]c3ccc(N4CC[C@]5(CCN(CC(=O)N6CC=C(c7ncc(-c8ncn(C)n8)s7)CC6)C5)C4=O)nc23)cc1F [Example 118]
≤ 500 | – | – | CC(C)Oc1ccc(-c2n[nH]c3ccc(N4CC[C@]5(CCN(CC(=O)N6CC=C(c7ccc(-c8ncn(C)n8)cc7)CC6)C5)C4=O)nc23)cc1 [Example 103]
– | – | ≤ 500 | CC(C)Oc1ccc(-c2n[nH]c3ccc(N4CC[C@]5(CCN(CC(=O)N6CC=C(c7ccc(-c8ncn(CCN(C)C)n8)cc7)CC6)C5)C4=O)nc23)cn1 [Example 97]
≤ 500 | – | – | Cn1cnc(-c2cnc(C3=CCN(C(=O)CN4CC[C@]5(CCN(c6ccc7[nH]nc(C8CC8)c7n6)C5=O)C4)CC3)s2)n1 [Example 113]
≤ 500 | – | – | CC(C)Oc1ccc(-c2n[nH]c3ccc(N4CC[C@]5(CCN(CC(=O)N6CC=C(c7ncc(-c8ncn(C)n8)s7)CC6)C5)C4=O)cc23)cc1 [Example 110]
500 to 1000 | – | – | CC(C)Oc1ccc(-c2n[nH]c3ccc(N4CC[C@]5(CCN(CC(=O)N6CC=C(c7ccc(-c8ncn(C)n8)nc7)CC6)C5)C4=O)nc23)cc1 [Example 105]
– | – | ≤ 500 | CC(C)Oc1ccc(-c2n[nH]c3ccc(N4CC[C@]5(CCN(CC(=O)N6CC=C(c7ncc(-c8cn(C)cn8)s7)CC6)C5)C4=O)nc23)cn1 [Example 99]
≤ 500 | – | – | COc1cc(-c2n[nH]c3ccc(N4CC[C@]5(CCN(CC(=O)N6CC=C(c7ncc(-c8ncn(C)n8)s7)CC6)C5)C4=O)nc23)ccc1OC(C)C [Example 108]
≤ 500 | – | – | CC(C)n1cc(-c2n[nH]c3ccc(N4CC[C@]5(CCN(CC(=O)N6CC=C(c7ccc(-c8ncn(C)n8)cc7)CC6)C5)C4=O)nc23)ccc1=O [Example 111]
≤ 500 | – | – | Cc1noc2ccc(-c3n[nH]c4ccc(N5CC[C@]6(CCN(CC(=O)N7CC=C(c8ccc(-c9ncn(C)n9)cc8)CC7)C6)C5=O)nc34)cc12 [Example 101]
≤ 500 | – | – | CC(C)Oc1ccc(-c2n[nH]c3ccc(N4CC[C@]5(CCN(CC(=O)N6CCN(c7ncc(-c8ncn(C)n8)s7)CC6)C5)C4=O)nc23)cc1 [Example 112]
– | – | ≤ 500 | CC(C)Oc1ccc(-c2n[nH]c3ccc(N4CC[C@]5(CCN(CC(=O)N6CC=C(c7ccc(-c8ncn(C)n8)c(F)c7)CC6)C5)C4=O)nc23)cc1F [Example 117]
≤ 500 | – | – | CC(C)Oc1ccc(-c2n[nH]c3ccc(N4CC[C@]5(CCN(CC(=O)N6CCN(c7ccc(-c8ncn(C)n8)cc7)C[C@@H]6C)C5)C4=O)nc23)cn1 [Example 115]

From patent US10934304B2, “Spirocyclic compounds” (Recurium IP Holdings, LLC, priority 2016, dated 2021)
